Key:
Human LPA3 = target: T1, Human LPA3 (Homo sapiens, UniProt Q9UBY5); assay: LPA3 calcium flux assay; assay type: cell-based; details: CHO cells expressing human LPA3, 10 nM LPA; read-out: HLPA3 Ca Flux IC50
T1 construct: The full-length cDNA fragment for human LPA3 was obtained by PCR from the vector; expressed in transfected cells; cDNA from the Missouri S&T cDNA Resource Center
T1 sequence (Q9UBY5 1-353): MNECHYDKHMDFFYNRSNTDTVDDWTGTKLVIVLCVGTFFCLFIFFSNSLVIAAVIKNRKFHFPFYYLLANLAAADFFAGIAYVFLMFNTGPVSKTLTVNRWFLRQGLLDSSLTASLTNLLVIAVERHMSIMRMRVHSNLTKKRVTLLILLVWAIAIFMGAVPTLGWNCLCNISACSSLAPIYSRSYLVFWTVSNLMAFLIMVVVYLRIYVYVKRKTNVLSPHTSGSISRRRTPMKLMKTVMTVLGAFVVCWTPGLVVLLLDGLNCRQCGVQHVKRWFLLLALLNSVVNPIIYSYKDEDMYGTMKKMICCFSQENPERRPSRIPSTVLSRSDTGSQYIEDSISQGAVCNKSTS
Description: A vector containing the human LPA3 receptor cDNA was obtained from the Missouri S&T cDNA Resource Center (www.cdna.org). The full-length cDNA fragment for human LPA3 was obtained by PCR from the vector. The nucleotide sequence of the cloned human LPA3 was determined by sequencing and confirmed to be identical to the published human LPA3 sequence (NCBI accession number NM_012152). The cDNA was cloned into the pcDNA5/FRT expression plasmid and transfected in CHO cells using lipofectamine 2000 (Invitrogen Corp., USA). Clones stably expressing human LPA3 were selected using hygromycin and identified as cells that show Ca-influx in response to LPA.
(§1) Human LPA1 or LPA3 expressing CHO cells are seeded at 20,000-45,000 cells per well in a 96-well poly-D-lysine coated plate one or two days before the assay. Prior to the assay, the cells are washed once with PBS and then cultured in serum-free media overnight. On the day of the assay, a calcium indicator dye (Calcium 4, Molecular Devices) in assay buffer (HBSS with Ca^2+and Mg^2+ and containing 20 mM Hepes and 0.3% fatty-acid free human serum albumin) is added to each well and incubation continued for 1 hour at 37° C. 10 μl of test compounds in 2.5% DMSO are added to the cells and incubation continued at room temperature for 30 minutes. Cells are the stimulated by the addition of 10 nM LPA and intracellular Ca^2+ measured using the Flexstation 3 (Molecular Devices). IC50s are determined using Graphpad prism analysis of drug titration curves.

Human LPA1 = target: T2, Human LPA1 (Homo sapiens, UniProt Q92633); assay: LPA1 calcium flux assay; assay type: cell-based; details: CHO cells expressing human LPA1, 10 nM LPA; read-out: HLPA1 Ca Flux IC50
T2 construct: the full-length cDNA for human LPA1 was obtained by PCR of the reverse transcription reaction; expressed in transfected cells
Description: A 1.1 kb cDNA encoding the human LPA1 receptor was cloned from human lung. Human lung RNA (Clontech Laboratories, Inc. USA) was reverse transcribed using the RETROscript kit (Ambion, Inc.) and the full-length cDNA for human LPA1 was obtained by PCR of the reverse transcription reaction. The nucleotide sequence of the cloned human LPA1 was determined by sequencing and confirmed to be identical to the published human LPA1 sequence (An et al. Biochem. Biophys. Res. Commun. 231:619 (1997). The cDNA was cloned into the pcDNA5/FRT expression plasmid and transfected in CHO cells using lipofectamine 2000 (Invitrogen Corp., USA). Clones stably expressing human LPA1 were selected using hygromycin and identified as cells that show Ca-influx in response to LPA.
as §1

C57B1/6 mice = assay: Bleomycin-induced lung fibrosis model in mice; assay type: in vivo; details: for total lung collagen: chronic setting (14 day bleomycin model)
Description: Female C57B1/6 mice (Harlan, 25-30 g) are housed 4 per cage, given free access to food and water and allowed to acclimate for at least 7 days prior to test initiation. After the habituation phase, mice are lightly anesthetized with isoflurane (5% in 100% O2) and administered with bleomycin sulfate (0.01-5 U/kg, Henry Schein) via intratracheal instillation (Cuzzocrea S et al. Am J Physiol Lung Cell Mol Physiol. 2007 May; 292(5):L1095-104. Epub 2007 Jan. 12.). Mice are returned to their cages and monitored daily for the duration of the experiment. Test compound or vehicle is delivered po, ip or sc daily. The route and frequency of dosing is based on previously determined pharmacokinetic properties. All animals are sacrificed using inhaled isoflurane 3, 7, 14, 21 or 28 days after bleomycin instillation. Following sacrifice, mice are intubated with a 20 gauge angiocatheter attached to a 1 ml syringe. Lungs are lavaged with saline to obtain bronchoalveolar lavage fluid (BALF) and then removed and fixed in 10% neutral buffered formalin for subsequent histopathological analysis. BALF is centrifuged for 10 min at 800×g to pellet the cells and the cell supernatant removed and frozen at −80° C. for subsequent protein analysis using the DC protein assay kit (Biorad, Hercules, Calif.) and soluble collagen analysis using Sircol (Biocolor Ltd, UK). BALF is analyzed for concentrations of inflammatory, pro-fibrotic and tissue injury biomarkers including transforming growth factor β1, hyaluronic acid, tissue inhibitor of metalloproteinase-1, matrix matelloproteinase-7, connective tissue growth factor and lactate dehydrogenase activity, using commercially available ELISA. The cell pellet is re-suspended in PBS. Total cell counts are then obtained using a Hemavet hematology system (Drew Scientific, Wayne, Pa.) and differential cells counts are determined using Shandon cytospin (Thermo Scientific, Waltham, Mass.). Lung tissue is stained using hematoxylin and eosin (H&E) and trichrome and lung fibrosis is determined by semiquantitative histopathological scoring (Ashcroft T. et al. J. Clin. Path. 1988; 41; 4, 467-470) using light microscopy (10× magnification) and quantitative, computer-assisted densitometry of collagen in lung tissue sections using light microscopy. The data are plotted using Graphpad prism and statistical differences between groups determined.

T2 sequence (Q92633 whole entry): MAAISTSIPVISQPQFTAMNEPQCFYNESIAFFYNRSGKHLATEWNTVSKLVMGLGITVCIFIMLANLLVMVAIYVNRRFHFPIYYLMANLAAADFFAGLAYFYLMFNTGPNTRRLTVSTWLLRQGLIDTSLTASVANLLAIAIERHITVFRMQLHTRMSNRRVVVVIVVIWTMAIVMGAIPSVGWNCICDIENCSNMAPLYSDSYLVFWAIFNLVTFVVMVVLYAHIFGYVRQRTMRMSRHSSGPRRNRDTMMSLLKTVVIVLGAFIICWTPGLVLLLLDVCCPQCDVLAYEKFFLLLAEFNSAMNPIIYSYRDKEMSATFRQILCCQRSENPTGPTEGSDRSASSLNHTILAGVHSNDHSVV

With `Cc1noc(-c2ccc(-c3ccc(C4(C(=O)O)CC4)cc3)cc2)c1NC(=O)O[C@H](C)c1ccccc1` [Compound 1, 1-{4′-[3-Methyl-4-((R)-1-phenyl-ethoxycarbonylamino)-isoxazol-5-yl]-biphenyl-4-yl}-cyclopropanecarboxylic acid] the IC50 (Human LPA3) was 1000 to 10000 nM, the IC50 (Human LPA1) was less than 300 nM and the “BALF MMP-7” value (C57B1/6 mice; 7-day bleomycin model) was “reduced”. The “BALF TGFβ1” value (C57B1/6 mice; 7-day bleomycin model) was “reduced”, the BALF collagen (C57B1/6 mice; 7-day bleomycin model) was “reduced” and the BALF hyaluronan (C57B1/6 mice; 7-day bleomycin model) was “reduced”. For the same compound, the “BALF inflammatory cell influx” value (C57B1/6 mice; 7-day bleomycin model) was “reduced”, the BALF protein (C57B1/6 mice; 7-day bleomycin model) was “reduced” and the “collagen concentration in BALF” value (C57B1/6 mice; acute setting (3 day)) was “significantly reduced”. For the same compound, the “total protein concentration in BALF” value (C57B1/6 mice; acute setting (3 day)) was “significantly reduced”, the total lung collagen (C57B1/6 mice; dosed prophylactically (day 0-day 14)) was “decreased” and the total lung collagen (C57B1/6 mice; dosed therapeutically (day 3-day 14)) was “decreased”.

From patent publication US8273780B2, “Polycyclic antagonists of lysophosphatidic acid receptors” (Amira Pharmaceuticals, Inc., priority 2009, dated 2012)
